Measured values taken from paper PMC4280904 (Journal of Veterinary Pharmacology and Therapeutics, 2014).
Several values for one entry are separate records, joined by “and”; a condition that tells them apart may be missing. Equal values may be shown once. Read-outs that look alike come from different tables or passages of the source. Marks after values point to notes of the source that are not given here.

Columns and labels:
Single dose and repeated = assay type: in vivo, beagle dogs; details: 30 mg/kg tablets p.o.; for AUC(0-inf): AUCinf; for Vd/F: Vz/f
[1] = Excretion balance of [14C] imepitoin after oral and intravenous dosing; assay type: in vivo, beagle dogs; details: for Fraction excreted, Total / Fraction excreted, Urine + Cage wash / Fraction excreted, Feces: cumulative radioactivity, mean (CV %)
plasma protein [2] = assay: In vitro plasma protein binding; assay type: in vitro ADME; details: male, human
plasma protein [3] = assay: In vitro plasma protein binding; assay type: in vitro ADME, beagle dogs; details: beagle, dog, heparinized plasma, mean ± SEM, n=3
plasma protein [4] = assay: In vitro plasma protein binding; assay type: in vitro ADME, rats; details: rat
CYP1A1 = CYP1A1 (Homo sapiens, UniProt P04798); assay: In vitro enzyme inhibition, recombinant CYP, fluorescent metabolites; assay type: in vitro ADME
CYP1A2 = CYP1A2 (Homo sapiens, UniProt P05177); assay: as above; assay type: in vitro ADME
CYP2A6 = CYP2A6 (Homo sapiens, UniProt P11509); assay: as above; assay type: in vitro ADME
CYP2C8 = CYP2C8 (Homo sapiens, UniProt P10632); assay: as above; assay type: in vitro ADME; details: up to the highest concentration tested (100 μM)
CYP2C19 = CYP2C19 (Homo sapiens, UniProt P33261); assay: as above; assay type: in vitro ADME
CYP2D6 = CYP2D6 (Homo sapiens, UniProt P10635); assay: as above; assay type: in vitro ADME
CYP3A4 = CYP3A4 (Homo sapiens, UniProt P08684); assay: as above; assay type: in vitro ADME; details: up to the highest concentration tested (100 μM)
CYP2A = assay: In vivo enzyme induction: ethoxycoumarin O-deethylase; parameters: species or system Wistar rats; details: rats, 3–100 mg/kg p.o. once daily 7 days
CYP2D1 = assay: In vivo enzyme induction: dextromethorphan O-demethylase; parameters: species or system Wistar rats; details: rats, 3–100 mg/kg p.o. once daily 7 days
CYP2E1 = assay: In vivo enzyme induction: nitrophenol hydroxylase; parameters: species or system Wistar rats; details: rats, 3–100 mg/kg p.o. once daily 7 days
CYP3A = assay: In vivo enzyme induction: erythromycin N-demethylase; parameters: species or system Wistar rats; details: rats, 3–100 mg/kg p.o. once daily 7 days
NAT2 = assay: In vivo enzyme induction: N-acetyltransferase, procainamide; parameters: species or system Wistar rats; details: rats, 3–100 mg/kg p.o. once daily 7 days
[5] = test system: pentylenetetrazole-induced convulsions; details: dogs, ref Löscher et al., 2004, cited from earlier work
[6] = dogs, 5 mg/kg, at time of seizure induction; ref Löscher et al., 2004; cited from earlier work
[7] = ref Heinecke & Thiel, 2001; cited from earlier work
[8] = ref Heinecke & Thiel, 2001; cited from earlier work; remark: listed apart in the source
[9] = test system: canine idiopathic epilepsy; details: epileptic dogs, dose escalation; ref Löscher et al., 2004; Rieck et al., 2006; cited from earlier work
CYP2C9 = CYP2C9 (Homo sapiens, UniProt P11712); assay: In vitro enzyme inhibition, recombinant CYP, fluorescent metabolites
[10] = both, beagle, dog, plasma, po, 30 mg/kg, Fasted
[11] = both, beagle, dog, plasma, po, 30 mg/kg, Fed
[12] = both, beagle, dog, plasma, po, 30 mg/kg, Day 0, fed
[13] = both, beagle, dog, plasma, po, 30 mg/kg, Day 5, fed
[14] = female, beagle, dog, plasma, po, 30 mg/kg, Females
[15] = male, beagle, dog, plasma, po, 30 mg/kg, Males
[16] = male, beagle, dog, plasma, po, 30 mg/kg, Males, fed

Chain of CYP1A2 (P05177 whole entry): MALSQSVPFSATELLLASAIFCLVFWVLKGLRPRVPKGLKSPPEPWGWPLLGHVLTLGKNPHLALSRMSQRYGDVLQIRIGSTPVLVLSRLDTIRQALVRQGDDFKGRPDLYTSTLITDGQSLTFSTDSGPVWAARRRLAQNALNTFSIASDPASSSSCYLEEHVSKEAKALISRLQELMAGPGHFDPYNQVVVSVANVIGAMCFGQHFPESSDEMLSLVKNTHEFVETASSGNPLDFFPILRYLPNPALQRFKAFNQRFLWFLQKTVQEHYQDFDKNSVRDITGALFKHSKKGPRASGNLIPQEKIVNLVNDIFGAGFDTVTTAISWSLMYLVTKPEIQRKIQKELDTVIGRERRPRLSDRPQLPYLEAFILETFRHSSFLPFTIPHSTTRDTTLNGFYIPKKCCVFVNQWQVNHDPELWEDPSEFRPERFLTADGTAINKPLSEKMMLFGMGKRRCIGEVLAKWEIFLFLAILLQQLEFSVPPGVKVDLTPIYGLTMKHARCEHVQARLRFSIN
Chain of CYP2C19 (P33261 whole entry): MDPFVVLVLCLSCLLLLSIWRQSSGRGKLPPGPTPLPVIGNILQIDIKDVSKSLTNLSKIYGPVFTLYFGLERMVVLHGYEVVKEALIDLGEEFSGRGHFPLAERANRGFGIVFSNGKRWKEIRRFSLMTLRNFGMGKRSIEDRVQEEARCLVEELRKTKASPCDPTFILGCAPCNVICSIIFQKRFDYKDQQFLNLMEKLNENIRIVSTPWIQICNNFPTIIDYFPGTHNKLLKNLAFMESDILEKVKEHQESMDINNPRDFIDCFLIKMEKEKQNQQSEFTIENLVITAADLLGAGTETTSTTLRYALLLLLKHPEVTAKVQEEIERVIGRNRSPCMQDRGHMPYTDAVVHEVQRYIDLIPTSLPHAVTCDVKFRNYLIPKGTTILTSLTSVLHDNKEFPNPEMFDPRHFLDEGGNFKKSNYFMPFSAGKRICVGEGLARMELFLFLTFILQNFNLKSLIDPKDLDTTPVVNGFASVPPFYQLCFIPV
Chain of CYP2A6 (P11509 whole entry): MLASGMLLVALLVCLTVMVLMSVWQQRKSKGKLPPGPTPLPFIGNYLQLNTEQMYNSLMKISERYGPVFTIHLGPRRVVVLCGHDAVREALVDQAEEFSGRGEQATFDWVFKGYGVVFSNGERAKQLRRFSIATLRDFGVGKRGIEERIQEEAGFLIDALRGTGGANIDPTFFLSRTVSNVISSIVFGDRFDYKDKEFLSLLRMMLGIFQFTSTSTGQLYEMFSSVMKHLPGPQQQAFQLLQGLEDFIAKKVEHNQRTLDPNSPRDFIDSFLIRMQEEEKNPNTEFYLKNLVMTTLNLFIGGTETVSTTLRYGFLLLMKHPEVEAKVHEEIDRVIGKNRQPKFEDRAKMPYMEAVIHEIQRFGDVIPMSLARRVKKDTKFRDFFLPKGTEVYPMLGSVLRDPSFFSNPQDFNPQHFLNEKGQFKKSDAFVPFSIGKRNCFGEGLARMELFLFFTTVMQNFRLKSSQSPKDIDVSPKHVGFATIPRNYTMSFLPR
Chain of CYP2D6 (P10635 whole entry): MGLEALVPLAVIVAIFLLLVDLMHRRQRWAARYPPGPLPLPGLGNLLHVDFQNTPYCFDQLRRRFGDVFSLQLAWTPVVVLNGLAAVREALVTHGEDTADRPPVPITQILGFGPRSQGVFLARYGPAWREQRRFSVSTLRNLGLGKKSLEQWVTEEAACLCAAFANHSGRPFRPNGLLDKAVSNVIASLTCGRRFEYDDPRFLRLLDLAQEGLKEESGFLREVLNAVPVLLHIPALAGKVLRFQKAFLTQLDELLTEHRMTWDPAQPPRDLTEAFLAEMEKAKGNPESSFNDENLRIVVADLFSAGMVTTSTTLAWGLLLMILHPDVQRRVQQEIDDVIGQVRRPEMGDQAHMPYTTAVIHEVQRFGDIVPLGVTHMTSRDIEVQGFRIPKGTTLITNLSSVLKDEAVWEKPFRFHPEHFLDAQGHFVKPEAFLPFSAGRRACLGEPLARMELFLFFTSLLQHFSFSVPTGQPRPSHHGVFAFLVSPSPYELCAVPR
Chain of CYP2C9 (P11712 whole entry): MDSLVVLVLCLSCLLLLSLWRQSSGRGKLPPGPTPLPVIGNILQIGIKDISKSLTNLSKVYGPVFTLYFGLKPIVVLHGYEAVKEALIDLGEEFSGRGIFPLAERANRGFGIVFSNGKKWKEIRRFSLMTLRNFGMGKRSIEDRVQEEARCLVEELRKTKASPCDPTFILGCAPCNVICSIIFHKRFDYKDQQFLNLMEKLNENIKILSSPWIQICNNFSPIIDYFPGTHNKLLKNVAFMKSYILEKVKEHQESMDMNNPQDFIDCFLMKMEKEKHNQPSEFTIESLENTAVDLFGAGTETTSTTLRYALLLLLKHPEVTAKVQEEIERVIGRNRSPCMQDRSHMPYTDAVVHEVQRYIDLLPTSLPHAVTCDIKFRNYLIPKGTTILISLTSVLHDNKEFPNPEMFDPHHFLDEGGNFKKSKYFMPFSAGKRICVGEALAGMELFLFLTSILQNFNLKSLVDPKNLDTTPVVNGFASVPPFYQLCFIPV
Chain of CYP2C8 (P10632 whole entry): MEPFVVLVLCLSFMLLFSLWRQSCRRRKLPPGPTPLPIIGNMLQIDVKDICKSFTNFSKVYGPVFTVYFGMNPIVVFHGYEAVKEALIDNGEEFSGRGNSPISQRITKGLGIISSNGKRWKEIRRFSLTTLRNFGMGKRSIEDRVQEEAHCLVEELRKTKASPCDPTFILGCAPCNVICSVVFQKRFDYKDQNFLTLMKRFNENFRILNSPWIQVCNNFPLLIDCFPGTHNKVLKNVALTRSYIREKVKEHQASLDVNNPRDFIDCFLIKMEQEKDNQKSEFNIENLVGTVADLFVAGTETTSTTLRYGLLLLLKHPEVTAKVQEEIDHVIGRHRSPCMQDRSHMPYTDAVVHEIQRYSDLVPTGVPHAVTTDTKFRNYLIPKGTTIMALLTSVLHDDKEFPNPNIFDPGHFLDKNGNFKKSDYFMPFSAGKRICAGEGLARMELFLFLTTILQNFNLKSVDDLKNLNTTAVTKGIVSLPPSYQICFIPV
Chain of CYP1A1 (P04798 whole entry): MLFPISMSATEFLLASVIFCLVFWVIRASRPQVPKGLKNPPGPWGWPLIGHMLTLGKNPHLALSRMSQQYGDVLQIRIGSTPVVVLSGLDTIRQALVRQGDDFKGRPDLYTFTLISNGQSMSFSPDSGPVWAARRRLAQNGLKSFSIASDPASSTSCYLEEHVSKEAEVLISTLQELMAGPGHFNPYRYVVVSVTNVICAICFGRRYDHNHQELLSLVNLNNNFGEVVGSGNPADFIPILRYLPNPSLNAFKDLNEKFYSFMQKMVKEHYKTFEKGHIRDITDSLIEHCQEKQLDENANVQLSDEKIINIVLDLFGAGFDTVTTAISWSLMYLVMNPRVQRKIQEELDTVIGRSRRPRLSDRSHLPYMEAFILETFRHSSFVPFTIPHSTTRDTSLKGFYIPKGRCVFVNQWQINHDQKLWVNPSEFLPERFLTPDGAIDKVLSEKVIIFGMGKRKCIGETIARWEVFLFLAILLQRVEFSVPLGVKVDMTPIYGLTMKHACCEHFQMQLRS
Chain of CYP3A4 (P08684 whole entry): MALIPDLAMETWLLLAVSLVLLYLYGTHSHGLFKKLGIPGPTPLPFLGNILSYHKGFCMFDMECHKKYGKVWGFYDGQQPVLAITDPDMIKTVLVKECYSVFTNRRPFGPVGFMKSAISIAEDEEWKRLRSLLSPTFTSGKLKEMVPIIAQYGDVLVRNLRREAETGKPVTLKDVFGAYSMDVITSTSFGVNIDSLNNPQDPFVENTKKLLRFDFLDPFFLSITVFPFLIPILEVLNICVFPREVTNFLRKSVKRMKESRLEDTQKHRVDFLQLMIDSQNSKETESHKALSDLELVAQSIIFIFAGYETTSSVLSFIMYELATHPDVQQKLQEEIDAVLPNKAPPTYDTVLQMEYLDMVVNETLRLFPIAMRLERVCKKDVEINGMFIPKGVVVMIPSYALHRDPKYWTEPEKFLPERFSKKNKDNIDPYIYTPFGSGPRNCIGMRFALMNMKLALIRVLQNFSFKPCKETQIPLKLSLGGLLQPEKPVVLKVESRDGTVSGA

## O=C1N=C(N2CCOCC2)CN1c1ccc(Cl)cc1 [Imepitoin, 1-(4-chlorophenyl)-4-morpholino-imidazolin-2-one]
Single dose and repeated; beagle dogs
  maximal plasma concentrations: 14.9 to 17.2 µg/mL
Single dose and repeated; crossover fed vs fasted
  reduction of total AUC by co-administration with food: 30%
Single dose and repeated; fasted vs fed
  AUCinf greater for fasted dogs: 30%
Single dose and repeated; Day 5 (after 4 days BID)
  Tmax: 1.75 ^* h
Single dose and repeated; Fasted
  Terminal T½: 1.47 h
Single dose and repeated; Fed
  Terminal T½: 1.95 ^* h
Single dose and repeated; [10]
  AUC(0-inf): 90300 ng·h/mL
  CL/F: 5.33 mL/min/kg
  Cmax: 17200 ng/mL
  Vd/F: 0.663 L/kg
Single dose and repeated; [11]
  AUC(0-inf): 69200 ng·h/mL
  CL/F: 6.95 mL/min/kg
  Cmax: 14900 ng/mL
  Vd/F: 1.13 L/kg
Single dose and repeated; [12]
  CL/F: 5.42 mL/min/kg
  Cmax: 15000 ng/mL
  Vd/F: 0.892 L/kg
Single dose and repeated; [13]
  CL/F: 8.92 mL/min/kg
  Cmax: 14800 ng/mL
  Vd/F: 1.43 L/kg
Single dose and repeated; both, beagle, dog, plasma, po, 30 mg/kg, Terminal T½, Fed
  half-life: 2 h
Single dose and repeated; both, beagle, dog, plasma, po, 30 mg/kg, Tmax, Day 0, fed
  Tmax: 2.6 h
Single dose and repeated; both, beagle, dog, plasma, po, 30 mg/kg, Tmax, Day 5, fed
  Tmax: 1.44 h
Single dose and repeated; both, beagle, dog, plasma, po, 30 mg/kg, Tmax, Fasted
  Tmax: 2.17 h
Single dose and repeated; both, beagle, dog, plasma, po, 30 mg/kg, Tmax, Fed
  Tmax: 2.02 h
Single dose and repeated; [14]
  CL/F: 5.83 mL/min/kg
  Cmax: 18100 ng/mL
  Vd/F: 0.833 L/kg
Single dose and repeated; female, beagle, dog, plasma, po, 30 mg/kg, Tmax, Females
  Tmax: 1.89 h
Single dose and repeated; [15]
  AUC(0-inf): 75500 ng·h/mL
  CL/F: 6.33 mL/min/kg
  Cmax: 14200 ng/mL
  Vd/F: 0.899 L/kg
Single dose and repeated; [16]
  CL/F: 7.33 mL/min/kg
  Cmax: 12500 ng/mL
  Vd/F: 1.19 L/kg
Single dose and repeated; male, beagle, dog, plasma, po, 30 mg/kg, Tmax, Males
  Tmax: 2.3 h
Single dose and repeated; male, beagle, dog, plasma, po, 30 mg/kg, Tmax, Males, fed
  Tmax: 2.44 h
[1]; 20 mg/kg p.o. (3 male, 3 female dogs) and 1 mg/kg i.v. (3 female dogs)
  tolerability, clinical adverse events: well tolerated
[1]; after oral dosing, range males/females
  total radioactivity excreted urinary: 27–38%
[1]; females, 1 mg/kg i.v., 0–8 h
  Fraction excreted, Total: 30.62 (n < 3) % of intravenous dose
  Fraction excreted, Urine + Cage wash: 30.62 (n < 3) % of intravenous dose
[1]; females, 1 mg/kg i.v., 0–24 h
  Fraction excreted, Feces: 54.74 (n < 3) % of intravenous dose
  Fraction excreted, Total: 74.07 (33.4) % of intravenous dose
  Fraction excreted, Urine + Cage wash: 37.58 (19.1) % of intravenous dose
[1]; females, 1 mg/kg i.v., 0–48 h
  Fraction excreted, Feces: 68.33 (n < 3) % of intravenous dose
  Fraction excreted, Total: 85.43 (37.2) % of intravenous dose
  Fraction excreted, Urine + Cage wash: 39.87 (19.9) % of intravenous dose
[1]; females, 1 mg/kg i.v., 0–264 h
  Fraction excreted, Total: 104.43 (4.4) % of intravenous dose
[1]; females, 20 mg/kg p.o., 0–8 h
  Fraction excreted, Feces: 0.09 (n < 3) % of oral dose
  Fraction excreted, Total: 8.04 (n < 3) % of oral dose
  Fraction excreted, Urine + Cage wash: 7.95 (n < 3) % of oral dose
[1]; females, 20 mg/kg p.o., 0–24 h
  Fraction excreted, Feces: 40.62 (n < 3) % of oral dose
  Fraction excreted, Total: 63.58 (n < 3) % of oral dose
  Fraction excreted, Urine + Cage wash: 22.96 (n < 3) % of oral dose
[1]; females, 20 mg/kg p.o., 0–48 h
  Fraction excreted, Feces: 45.64 (22.0) % of oral dose
  Fraction excreted, Total: 76.52 (20.8) % of oral dose
  Fraction excreted, Urine + Cage wash: 30.88 (23.3) % of oral dose
[1]; females, 20 mg/kg p.o., 0–264 h
  Fraction excreted, Total: 93.84 (8.4) % of oral dose
[1]; males, 20 mg/kg p.o., 0–8 h
  Fraction excreted, Total: 0.58 (n < 3) % of oral dose
  Fraction excreted, Urine + Cage wash: 0.58 (n < 3) % of oral dose
[1]; males, 20 mg/kg p.o., 0–24 h
  Fraction excreted, Feces: 34.41 (92.2) % of oral dose
  Fraction excreted, Total: 51.11 (66.2) % of oral dose
  Fraction excreted, Urine + Cage wash: 16.70 (20.9) % of oral dose
[1]; males, 20 mg/kg p.o., 0–48 h
  Fraction excreted, Feces: 75.65 (12.3) % of oral dose
  Fraction excreted, Total: 97.51 (6.4) % of oral dose
  Fraction excreted, Urine + Cage wash: 21.86 (20.5) % of oral dose
[1]; males, 20 mg/kg p.o., 0–264 h
  Fraction excreted, Total: 104.74 (2.8) % of oral dose
[1]; urine + feces, range over dosing groups
  total radioactivity excreted within 48 h: 76–97% and 76.5–97.5%
Plasma protein [2]; heparinized plasma
  fraction unbound at 15 min, 0.1 μg/mL: 0.43
  fraction unbound at 15 min, 1 μg/mL: 0.41
  fraction unbound at 15 min, 10 μg/mL: 0.43
Plasma protein [2]; plasma (heparinized)
  fraction unbound at 15 min: 0.41 to 0.43
Plasma protein [3]
  fraction unbound at 15 min, 10 μg/mL: 0.44
Plasma protein [4]; heparinized plasma
  fraction unbound at 15 min, 0.1 μg/mL: 0.49
  fraction unbound at 15 min, 1 μg/mL: 0.5 ± 0.0064
  fraction unbound at 15 min, 10 μg/mL: 0.5 ± 0.011
Plasma protein [4]; plasma (heparinized, pool of five fasted animals)
  fraction unbound at 15 min: 0.49 to 0.5
CYP1A1
  IC50: 55 µM
CYP1A2
  IC50: > 100 µM
CYP1A2; recombinant human CYP1A2
  Inhibition of the specific cytochrome P450 isoform IC50, 1A2: did not influence
CYP2A6
  IC50: > 100 µM
CYP2A6; recombinant human CYP2A6
  Inhibition of the specific cytochrome P450 isoform IC50, 2A6: did not influence
CYP2C8
  influence on activity of CYP2C8: did not influence
CYP2C19
  IC50: > 100 µM
CYP2C19; recombinant human CYP2C19
  Inhibition of the specific cytochrome P450 isoform IC50, 2C19: did not influence
CYP2D6
  IC50: > 100 µM
CYP2D6; recombinant human CYP2D6
  Inhibition of the specific cytochrome P450 isoform IC50, 2D6: did not influence
CYP3A4
  influence on activity of CYP3A4: did not influence
CYP2A
  induction of CYP2A: did not induce
CYP2D1
  induction of CYP2D1: did not induce
CYP2E1
  induction of CYP2E1: did not induce
CYP3A
  induction of CYP3A: did not induce
NAT2
  induction of NAT2: did not induce
[5]; 5 mg/kg orally twice daily, 5 mg/kg
  elevation of threshold for pentylenetetrazole-induced convulsions: significant increase
[5]; 40 mg/kg twice daily, 40 mg/kg
  elevation of threshold for pentylenetetrazole-induced convulsions: much stronger elevation of threshold
[5]; 40 mg/kg twice daily, listed as imepitoin, 40 mg/kg
  elevation of threshold for pentylenetetrazole-induced convulsions: greatly enhanced the drug-induced effect
[5]; repeated administration for 28 days
  development of tolerance toward anticonvulsant activity: no development of tolerance
[6]
  peak plasma concentration: 1400 to 1700 ng/mL
[7]
  solubility in acidic media such as gastric fluid: more readily soluble in acidic media
  solubility in aqueous media: very low solubility in aqueous media
[8]
  lipophilicity: high lipophilicity
[9]
  anti-epileptic activity versus historical phenobarbital data: comparable anti-epileptic activity
  tolerability versus phenobarbital: clearly superior to phenobarbital
CYP2C9
  IC50: > 100 µM
CYP2C9; recombinant human CYP2C9
  Inhibition of the specific cytochrome P450 isoform IC50, 2C9: did not influence
